Results on five substances are retold here after US9605025B2, “Antagonist peptide of the bond between CD47 and a protein belonging to the thrombospondin family” (Universite de Reims Champagne Ardenne, priority 2011, dated 2017).

For one experiment, the target named is T1, TSP1/CD47 complexes (Homo sapiens, UniProt P07996).
T1 construct: endogenous in cells; host or cells: MDA-MB-231 breast cancer cells
Put plainly: immunoprecipitation of TSP1/CD47 complexes with anti-CD47 antibody and Western Blot in MDA-MB-231 cells. The conditions noted are these: MDA-MB-231 breast cancer cells, 100 μM peptide. The experiment is classed as cell-based. Here is the method: FIG. 5 is a photo illustration showing the inhibition of the biomolecular interaction between the TSP1 and the CD47 receptor of the MDA-MB-231 breast cancer cells. The cells are incubated for 2 hours with […] 100 μM of the antagonist peptide according to the invention. The TSP1/CD47 complexes are then immunoprecipitated using an anti-CD47 antibody, then the presence of TSP1 and CD47 is analyzed using the Western Blot technique.
Thus, MDA-MB-231 cells corresponding to cells from a breast cancer were incubated for 24 hours with or without the dodecapeptide according to this invention. In particular, the peptide used was the one with sequence:
Immunoprecipitation of the complexes, with an antibody directed against the CD47, then an analysis of the TSP1 and CD47 proteins by the Western Blot method were then done.
Background: A western blot detects proteins with antibodies after separation by electrophoresis.

The subject of another experiment is B16-F1 mouse melanoma. Put plainly: B16-F1 mouse melanoma model in syngeneic C57Bl/6 mice. The experiment is classed as in vivo. The method, then:
FIG. 6 is a photo illustration showing the action of the cyclized antagonist peptide on mouse melanoma cells. After a subcutaneous injection of 250,000 B16-F1 mouse melanoma cells into syngeneic C57Bl/6 mice, intraperitoneal administrations of 10 mg/kg of the antagonist were given on days 3, 5 and 7. The mice were then sacrificed and the tumors photographed on day 20.
FIG. 7 is a photo illustration corresponding to an MRI analysis of an untreated tumor (on the left) and a tumor treated with the cyclized peptide of interest on day 12. An arrow points to the necrotic area.
was also tested directly in vivo on a B16-F1 mouse melanoma model injected into syngeneic C57Bl/6 mice.
FIG. 7 allows a comparison, thanks to a magnetic resonance imaging (RMI) analysis, of the tumor taken from the animal not treated with the tumor taken from the animal treated with the cyclized peptide by means of a disulfide bridge on day 12 after the injection of the tumor cells.

In experiment [1] the test system is thyroid carcinoma cells (FTC-133). Put plainly: viability of FTC-133 thyroid carcinoma cells treated with camptothecin or doxorubicin. Format: cell-based, human. The conditions noted are these: FTC-133, 5 μM camptothecin or doxorubicin; for viability of the tumor cells: 100 μM peptide. Here is the method:
FIG. 2 is a graph illustration showing the role of the peptide 4N1 (KRFYVVMWK (SEQ ID NO: 5), derived from the C-terminal domain of TSP1, and the CD47 receptor on the regulation of apoptosis induced by camptothecin (Cpt) or doxorubicin (Dox). To achieve this, thyroid carcinoma cells (FTC-133) were incubated with 5 μM of one or other of the drugs and 100 μM of test peptide 4N1 with or without B6H12 antibody (100 μg/mL) blocking the CD47 receptor. The same experiment was performed with a control peptide 4NGG (KRFYGGMWK SEQ ID NO:6), which is incapable of binding the CD47.
The inventors therefore sought to understand the role of the peptide 4N1 and the CD47 receptor in the inhibition of the apoptosis of cancer cells, and in particular the FTC-133 cells of human thyroid carcinoma (Rath et al., 2006).

The subject of experiment [2] is follicular thyroid carcinoma cells. Put plainly: caspase-3 activity (marker of apoptosis) in follicular thyroid carcinoma cells treated with camptothecin or doxorubicin. Format: cell-based, human. The conditions noted are these: in the presence of doxorubicin or camptothecin, with vs without TSP1. The method, then:
FIG. 1 is a graph illustration showing the caspase-3 activity, a marker of apoptosis, obtained by measuring the quantity of para-nitroaniline released per hour per μg of protein (y-axis). The caspase-3 activity is measured on follicular thyroid carcinoma cells in the presence of an anticancer molecule inducing apoptosis, camptothecin (Cpt) or doxorubicin (Dox) in the presence or absence of TSP1.
The latter therefore reduces the rate of apoptosis of the thyroid carcinoma cells subjected to an anti-cancer therapy.

T1 sequence (P07996 19-1170, one chain of several): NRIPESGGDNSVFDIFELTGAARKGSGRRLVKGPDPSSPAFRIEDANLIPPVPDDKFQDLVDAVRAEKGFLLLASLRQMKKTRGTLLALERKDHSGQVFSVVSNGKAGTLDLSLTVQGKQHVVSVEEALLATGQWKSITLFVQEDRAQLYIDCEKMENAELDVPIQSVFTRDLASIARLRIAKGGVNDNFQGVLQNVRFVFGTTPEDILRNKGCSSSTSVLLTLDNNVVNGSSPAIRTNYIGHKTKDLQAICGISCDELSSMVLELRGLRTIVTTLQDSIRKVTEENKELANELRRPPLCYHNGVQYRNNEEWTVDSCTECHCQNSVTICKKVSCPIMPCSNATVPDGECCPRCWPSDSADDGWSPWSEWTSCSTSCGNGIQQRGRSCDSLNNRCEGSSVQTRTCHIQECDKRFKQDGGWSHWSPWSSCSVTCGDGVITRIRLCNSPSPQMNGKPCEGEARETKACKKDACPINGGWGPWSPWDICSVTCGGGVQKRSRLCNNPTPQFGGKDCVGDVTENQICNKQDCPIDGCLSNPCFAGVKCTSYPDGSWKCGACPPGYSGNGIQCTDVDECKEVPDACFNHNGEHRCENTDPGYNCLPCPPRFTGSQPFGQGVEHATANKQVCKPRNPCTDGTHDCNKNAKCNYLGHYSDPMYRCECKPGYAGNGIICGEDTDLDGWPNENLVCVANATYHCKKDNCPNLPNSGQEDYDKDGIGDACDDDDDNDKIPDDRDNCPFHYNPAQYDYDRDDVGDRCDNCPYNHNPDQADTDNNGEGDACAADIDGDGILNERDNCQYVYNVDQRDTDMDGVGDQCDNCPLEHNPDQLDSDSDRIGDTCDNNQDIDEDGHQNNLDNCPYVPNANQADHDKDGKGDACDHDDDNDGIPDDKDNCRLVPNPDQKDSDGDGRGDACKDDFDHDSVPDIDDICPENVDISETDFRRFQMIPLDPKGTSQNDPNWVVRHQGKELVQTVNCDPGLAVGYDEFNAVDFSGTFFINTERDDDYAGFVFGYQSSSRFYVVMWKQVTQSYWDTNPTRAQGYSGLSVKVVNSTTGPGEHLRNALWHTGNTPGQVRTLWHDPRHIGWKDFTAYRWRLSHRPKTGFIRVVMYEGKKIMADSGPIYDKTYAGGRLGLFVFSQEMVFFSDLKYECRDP

On to CEVSQLLKGDAC [SEQ ID NO: 2], for which the “TSP1 detected by Western Blot after immunoprecipitation with anti-CD47 antibody (TSP1/CD47 interaction)” value in the experiment with TSP1/CD47 complexes was “prevents the molecular interaction between the TSP1 protein and the CD47 receptor”. The “mice showing a large necrotic area located in the tumor” value with B16-F1 mouse melanoma (10 mg/kg intraperitoneal on days 3, 5 and 7, tumors on day 20) is listed as 4/8. For the same substance, the “necrotic area in the tumor by MRI analysis” value with B16-F1 mouse melanoma (day 12 after the injection of the tumor cells) is recorded as “has a necrotic area”.

For the substance “IEVSQLLKGDAS (Antagonist peptide of the bond between a receptor CD47 and a protein belonging to the thrombospondin family) [SEQ ID NO: 1]”, the “TSP1 detected by Western Blot after immunoprecipitation with anti-CD47 antibody (TSP1/CD47 interaction)” value in the experiment with TSP1/CD47 complexes was “TSP1 is no longer detected”.

For KRFYGGMWK [4NGG], the “viability of the tumor cells” value in experiment [1] is given as “does not have any effect”.

Turning to KRFYVVMWK [4N1], in experiment [1], the “viability of the tumor cells” value is on record as “viability of the tumor cells is greater”. The “protection of the tumor cells against the anti-cancer drugs” value in experiment [1] (100 μM peptide plus B6H12 antibody (100 μg/mL) blocking CD47) is on record as “no longer protects the tumor cells”.

As for “TSP1: thrombospondin-1, extracellular matrix glycoprotein binding the CD47 receptor”, the “caspase-3 activity (para-nitroaniline released per hour per μg of protein)” value in experiment [2] is “inhibited considerably”.
